In patent US5556840A, “2',5'-phosphorothioate oligoadenylates as anitiviral agents” (Temple University - Of The Commonwealth System of Higher …, priority 1994, dated 1996):
“Also recorded” adds a separate entry of the source. Read-outs that look alike come from different tables or passages of the source.

Legend:
[1] = tested on: RNase L; assay: Core-cellulose assay: activation of partially-purified RNase L to hydrolyze poly(U)-3'-[32P]pCp; assay type: biochemical, mouse; conditions: poly(U)-3'-[32P]pCp substrate
Description: FIG. 1B represents the results of a core-cellulose assay indicating the ability of the 2',5'-phosphorothioate adenylate trimer cores and 5'-monophosphates to activate partially-purified RNase L from L929 cell extracts to hydrolyze the substrate polY(U)-3'-[^32 P]pCp. Activation of RNase L was determined by conversion of poly (U )-3'-[^32 P]pCp to acid-soluble fragments. 100% represents 30,000 cpm of labelled poly(U)-3'-[^32 P]pCp bound to glass fiber filters. The curves are labelled in the same manner as FIG. 1A.
The 2',5'-phosphorothioate cores, with one exception, have the correct stereoconfiguration to activate RNase L. The activation of partially-purified RNase L by the 2',5'-phosphorothioates was measured according to the core-cellulose assay of Silverman, Analyt. Biochem. 144:450-460 (1985) which relies on hydrolysis of the substrate poly(U)-3-[^32 P]pCp. […] (FIG. 1B) The order of activation of the trimer cores and the corresponding 5'-monophosphates is: RpRp>SpRp>RpSp (FIG. 1B).

[2] = tested on: RNase L; assay: rRNA cleavage assay using L929 cell extracts (28S and 18S rRNA); assay type: biochemical, mouse; conditions: L929 cell extracts; '>' = no activation at that concentration
Description: Activation of RNase L by 2',5'-phosphorothioate adenylate trimer cores and their 5'-monophosphates was also measured in an rRNA cleavage assay using L929 cell extracts.
The corresponding 5'-monophosphates pARp ARp A, pASp ARp A (at 10^-8 M) and pARp ASp A (at 10^-7 M) activated RNase L to cleave 28S and 18S rRNA.

[3] = tested on: HIV reverse transcriptase; assay: HIV reverse transcriptase activity; assay type: biochemical, HIV (HTLV-IIIB); conditions: 200 uM; for Reverse Transcriptase Activity: control 187×10^3 cpm (reactions 1-4), 273×10^3 cpm (reactions 5-13)
Description: HIV reverse transcriptase (RNA-dependent DNA nucleotidyl-transferase) activity was assayed by a modification of the procedure of Poiesz et al. (Poiesz, B. J., Ruscetti , F. W., Gazdar, A. F., Bunn, P. S., Minna, J. D., and Gallo, R. C., Proc. Natl. Acad. Sci. U.S.A. 77: 7415-7419 (1980)).
Cultured H-9 cells are grown at 10^6 cells/ml in RPMI-1640 medium and 20% heat-inactivated fetal calf serum. Cell suspensions are centrifuged (1000×g, 10 min.) and the supernatant is removed. Virus particles are precipitated from this cell-free supernatant to which 0.3 ml of 4M NaCl and 3.6 ml of 30% (weight/volume) polyethylene glycol are added. The suspension is placed on ice for 2 hr following centrifugation at 15,000×g for 30 min at 0° C. The precipitate is resuspended in 200 microliters of 50% glycerol (vol./vol.)/25 mM Tris-HCl (pH 7.5)/5 mM dithiothreitol/50 mM KCl/0.025% Triton X-100. Virus particles are lysed by the addition of 100 microliters of 0.9% Triton X-100/1.5M KCl. Reverse transcriptase assays are performed at 37° C. for 1 hr with 10 microliters of the lysed virus solution in a final reaction volume of 100 microliters containing: 40 mM Tris-HCl (pH 7.8), 4 mM dithiothreitol, 45 mM KCl and 2.5 micrograms of template primer [poly(A)-dT15, 0.5 micrograms/microliter] (with a signal Mg^++ concentration of 10 mM). At this time, 10 microliters of the 2',5'-phosphorothioate oligoadenylate is added to a final concentration of 200 micromolar. Reaction mixtures also contain 4 micromoles of [^3 H]dTTP. Reactions are stopped by the addition of cold 5% trichloroacetic acid and filtered through nitrocellulose discs. The discs are dried and the radioactivity bound to the discs is determined. Reverse transcriptase activity is expressed as the percent relative to a control.
The compounds were assayed in the above manner in two sets, each set having a separate set of controls. The compounds of reactions 1-4 were assayed against control #1, which was 187×10^3 cpm. The compounds used in reactions 5-13 were assayed against control #2, which was 273×10^3 cpm.

[4] = tested on: tobacco mosaic virus (TMV); assay: TMV replication in intact Nicotiana glutinosa plants (local lesions); assay type: in vivo; conditions: 2 × 10^-5 M in infecting solution; 48 hr after infection; half-leaves of N. glutinosa
Description: Carborundum (400 mesh) was sprinkled lightly onto leaves. Solutions containing 0.2 micrograms per ml of TMV and 2×10^-5 M 2',5'-phosphorothioate oligoadenylate in phosphate buffer were applied onto half-leaves of N. glutinosa with either a gloved finger or with a pipettor. The remaining half-leaves were controls (inoculated with the buffer solution containing TMV, but no active compound). The infection was allowed to proceed 48 h under continuous illumination of about 1500 Lx at which time local virus lesions appeared. Inhibition of TMV replication was calculated as the percent of local lesions produced in 2',5'-phosphorothioate oligoadenylate-treated half-leaves compared to control half-leaves.
^4 Inhibition of TMV replication was detected 48 hr after infection
and was calculated as the percent of local lesions produced in treated
halfleaves of N. glutinosa compared to control halfleaves.

[5] = tested on: phosphodiesterases; assay: Metabolic stability, general statements; assay type: in vitro ADME
[6] = tested on: SVPD; assay: Hydrolysis by SVPD (snake venom phosphodiesterase); assay type: in vitro ADME
Description: It is known that the enzyme SVPD preferentially cleaves Rp-3',5'- or 2',5'-phosphorothioate linkages from the 2'/3'-terminus. Nelson et al, J. Org. Chem. 49:2314-2317 (1984); Eppstein et al, J. Biol. Chem. 261:5999-6003 (1986); Lee et al, Biochemistry 24:551-555 (1985). SVPD hydrolysis of the chemically synthesized dimer core ARp A yielded adenosine and AMPS in a molar ratio of 1:1, respectively; the half-life was 3 hours (Table 3).
(§1) The metabolic stability of the 2,5'-phosphorothioate dimer and trimer cores is markedly greater than authentic 2-5A. The rate of hydrolysis of the trimer cores by the 3'-exonuclease SVPD is, in order of decreasing stability: ASp ARp A>ARp ARp A>>>A3. […] The 3'->'5'direction of stepwise cleavage by SVPD is blocked by an Sp configuration, preventing cleavage of the upstream adjacent phosphorothioate linkage. […] With both SVPD and 2'-PDE, the dimer cores (either ARp A or ASp A) accumulate following hydrolysis of the ARp ARp A, ASp ARp A and ARp ASp A trimer cores. Hydrolysis of the 2-5A molecule by SVPD and 2'-PDE proceeds from the 2'/3'-terminus. Therefore, introduction of the phosphorothioate group into the trimer core results in the accumulation of the ARp A or ASp A dimer cores from the 5'-terminus and the accumulation of AMPS from the 2'/3'-terminus (Table 3). With authentic A3, there is no detectable accumulation of A2 following hydrolysis by SVPD or 2'-PDE.

[7] = tested on: 2'-phosphodiesterase (2'-PDE), L cell extract; assay: Hydrolysis by 2'-phosphodiesterase in L cell extract; assay type: in vitro ADME
Text: The four 2,5-phosphorothioate adenylate trimer cores were further characterized by hydrolysis with the enzyme 2'-phosphodiesterase ("2'-PDE"), an exoribonuclease found in L cell extract The enzyme cleaves from the 2'/3'-terminus.
as §1

[8] = tested on: RNase L; assay: Activation or inhibition of RNase L, general statements without assay named; assay type: biochemical
[9] = tested on: serum phosphodiesterases; assay: Hydrolysis by serum phosphodiesterases

## 5'-O-Phosphoryl-(Rp)-thioadenylyl-(2'-5')-(Rp)-thioadenylyl-(2'-5')-adenosine [pARp ARp A]
[1]
  activation of RNase L, core-cellulose assay (result in words): most efficient activator of RNase L
[2]
  concentration at which RNase L was activated to cleave 28S and 18S rRNA: 10^-8 M
[3]
  Percent Inhibition of HIV reverse transcriptase: 25%
  Reverse Transcriptase Activity: 144 10^3 cpm
[4]
  Percent TMV Inhibition: 75%
[5]
  metabolic stability (result in words): metabolically unstable and is readily attacked by phosphodiesterases

## (Rp)-P-Thioadenylyl-(2'-5')-(Sp)-P-thiodenylyl-(2'-5')-adenosine [Compound 10A]
[6]
  hydrolysis by SVPD (result in words): not substrates for SVPD; also recorded: not cleaved
[6]; listed as ARp ASp A
  hydrolysis by SVPD (result in words): not substrates of SVPD
[7]
  half life, hydrolysis by L cell extract: 20 days
[2]
  concentration at which RNase L was activated to cleave 28S and 18S rRNA: > 10^-4 M
[3]
  Percent Inhibition of HIV reverse transcriptase: 10%
  Reverse Transcriptase Activity: 247 10^3 cpm
[4]
  Percent TMV Inhibition: 70%
[8]
  effect on RNase L activation (result in words): activates RNase L
[5]
  metabolic stability (result in words): metabolicly stable
[9]
  hydrolysis by serum phosphodiesterases (result in words): not cleaved
